Test results: PubChem BioAssay AID2060907 (Molecular Pharmacology Branch, DTP, NCI, 2025)

Test system: 388556-164-R-J1-PDC complex spheroid viability
Assay: Anticancer human tumor 388556-164-R-J1-PDC patient-derived colon adenocarcinoma cell line growth inhibition [RAS]
Conditions: for IC50: curve of first compound; for viability, T/C: stronger effect = lower value
Outline: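 Multi-cell-type spheroids: tumor cells plus HUVEC endothelial cells and mesenchymal stem cells. RAS-pathway inhibitors were combined with targeted agents, each dosed in half-log steps down from clinical Cmax, or from 10 microM when Cmax was unknown.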
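Further: spheroids exposed to compound for 7 days before readout.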
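Wherever viability, T/C is given: 100% = DMSO vehicle control luminescence.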

Q: What does the source list for `CC1(C)CCC(Nc2ncc(C(F)(F)F)c(-c3c[nH]c4c(P(C)(C)=O)c(C#N)ccc34)n2)CN1` (centres undefined) + C#Cc1c(F)ccc2cc(O)cc(-c3ncc4c(N5CC6CCC(C5)N6)nc(OCC56CCCN5CC(F)C6)nc4c3F)c12?
A: IC50 (second compound 0.0316 µM): > 300 nM; IC50 (second compound 0.1 µM): > 300 nM; IC50 (second compound 0.316 µM): > 300 nM; IC50 (second compound 1 µM): > 300 nM; IC50 (second compound 3.16 µM): > 300 nM; IC50 (second compound 10 µM): > 300 nM; viability, T/C (second compound 0.0316 µM, first compound 0.000949 µM): 111%; viability, T/C (second compound 0.0316 µM, first compound 0.003 µM): 110%; viability, T/C (second compound 0.0316 µM, first compound 0.00949 µM): 112%; viability, T/C (second compound 0.0316 µM, first compound 0.03 µM): 94.9%; viability, T/C (second compound 0.0316 µM, first compound 0.0949 µM): 118%; viability, T/C (second compound 0.0316 µM, first compound 0.3 µM): 97.3%; viability, T/C (second compound 0.1 µM, first compound 0.000949 µM): 110%; viability, T/C (second compound 0.1 µM, first compound 0.003 µM): 112%; viability, T/C (second compound 0.1 µM, first compound 0.00949 µM): 110%; viability, T/C (second compound 0.1 µM, first compound 0.03 µM): 101%; viability, T/C (second compound 0.1 µM, first compound 0.0949 µM): 116%; viability, T/C (second compound 0.1 µM, first compound 0.3 µM): 92.1%; viability, T/C (second compound 0.316 µM, first compound 0.000949 µM): 100%; viability, T/C (second compound 0.316 µM, first compound 0.003 µM): 100%; viability, T/C (second compound 0.316 µM, first compound 0.00949 µM): 91.1%; viability, T/C (second compound 0.316 µM, first compound 0.03 µM): 114%; viability, T/C (second compound 0.316 µM, first compound 0.0949 µM): 115%; viability, T/C (second compound 0.316 µM, first compound 0.3 µM): 92.9%; viability, T/C (second compound 1 µM, first compound 0.000949 µM): 97.1%; viability, T/C (second compound 1 µM, first compound 0.003 µM): 92%; viability, T/C (second compound 1 µM, first compound 0.00949 µM): 80.7%; viability, T/C (second compound 1 µM, first compound 0.03 µM): 96.7%; viability, T/C (second compound 1 µM, first compound 0.0949 µM): 100%; viability, T/C (second compound 1 µM, first compound 0.3 µM): 84.2%; viability, T/C (second compound 3.16 µM, first compound 0.000949 µM): 83%; viability, T/C (second compound 3.16 µM, first compound 0.003 µM): 78.2%; viability, T/C (second compound 3.16 µM, first compound 0.00949 µM): 99.8%; viability, T/C (second compound 3.16 µM, first compound 0.03 µM): 99.5%; viability, T/C (second compound 3.16 µM, first compound 0.0949 µM): 96.3%; viability, T/C (second compound 3.16 µM, first compound 0.3 µM): 77.8%; viability, T/C (second compound 10 µM, first compound 0.000949 µM): 70.7%; viability, T/C (second compound 10 µM, first compound 0.003 µM): 65.1%; viability, T/C (second compound 10 µM, first compound 0.00949 µM): 76.6%; viability, T/C (second compound 10 µM, first compound 0.03 µM): 81%; viability, T/C (second compound 10 µM, first compound 0.0949 µM): 62.7%; viability, T/C (second compound 10 µM, first compound 0.3 µM): 63.4%

Q: How did the IC50 (second compound 0.00316 µM) turn out when `C=CC(=O)Nc1cc(Nc2nccc(-c3cn(C)c4ccccc34)n2)c(OC)cc1N(C)CCN(C)C` + C=CC(=O)N1CCN(c2nc(OCC3CCCN3C)nc3c(F)c(-c4nc(N)cc(C)c4C(F)(F)F)c(Cl)cc23)C(C)C1 was run?
A: > 1000 nM

Q: What about the IC50 (second compound 0.01 µM) of the same compound?
A: > 1000 nM

Q: What about the IC50 (second compound 0.0316 µM) of the same compound?
A: > 1000 nM

Q: What about the IC50 (second compound 0.1 µM) of the same compound?
A: > 1000 nM

Q: And the IC50 (second compound 0.316 µM)?
A: > 1000 nM

Q: And the IC50 (second compound 1 µM)?
A: > 1000 nM

Q: And the viability, T/C (second compound 0.00316 µM, first compound 0.00316 µM)?
A: 110%

Q: What about the viability, T/C (second compound 0.00316 µM, first compound 0.01 µM) of the same compound?
A: 99.2%

Q: And the viability, T/C (second compound 0.00316 µM, first compound 0.0316 µM)?
A: 92.6%

Q: And the viability, T/C (second compound 0.00316 µM, first compound 0.1 µM)?
A: 80.3%

Q: And the viability, T/C (second compound 0.00316 µM, first compound 0.316 µM)?
A: 68.6%

Q: What about the viability, T/C (second compound 0.00316 µM, first compound 1 µM) of the same compound?
A: 52.8%

Q: What about the viability, T/C (second compound 0.01 µM, first compound 0.00316 µM) of the same compound?
A: 104%

Q: And the viability, T/C (second compound 0.01 µM, first compound 0.01 µM)?
A: 103%

Q: What about the viability, T/C (second compound 0.01 µM, first compound 0.0316 µM) of the same compound?
A: 101%

Q: And the viability, T/C (second compound 0.01 µM, first compound 0.1 µM)?
A: 90.1%

Q: And the viability, T/C (second compound 0.01 µM, first compound 0.316 µM)?
A: 68.4%

Q: And the viability, T/C (second compound 0.01 µM, first compound 1 µM)?
A: 58%

Q: And the viability, T/C (second compound 0.0316 µM, first compound 0.00316 µM)?
A: 102%

Q: And the viability, T/C (second compound 0.0316 µM, first compound 0.01 µM)?
A: 99%

Q: And the viability, T/C (second compound 0.0316 µM, first compound 0.0316 µM)?
A: 94%

Q: And the viability, T/C (second compound 0.0316 µM, first compound 0.1 µM)?
A: 87.3%

Q: And the viability, T/C (second compound 0.0316 µM, first compound 0.316 µM)?
A: 70.3%

Q: And the viability, T/C (second compound 0.0316 µM, first compound 1 µM)?
A: 61.2%

Q: What about the viability, T/C (second compound 0.1 µM, first compound 0.00316 µM) of the same compound?
A: 100%

Q: What about the viability, T/C (second compound 0.1 µM, first compound 0.01 µM) of the same compound?
A: 99.4%

Q: And the viability, T/C (second compound 0.1 µM, first compound 0.0316 µM)?
A: 91.1%

Q: And the viability, T/C (second compound 0.1 µM, first compound 0.1 µM)?
A: 90.6%

Q: What about the viability, T/C (second compound 0.1 µM, first compound 0.316 µM) of the same compound?
A: 72.9%

Q: And the viability, T/C (second compound 0.1 µM, first compound 1 µM)?
A: 54.6%

Q: What about the viability, T/C (second compound 0.316 µM, first compound 0.00316 µM) of the same compound?
A: 99.2%

Q: And the viability, T/C (second compound 0.316 µM, first compound 0.01 µM)?
A: 110%

Q: And the viability, T/C (second compound 0.316 µM, first compound 0.0316 µM)?
A: 103%

Q: And the viability, T/C (second compound 0.316 µM, first compound 0.1 µM)?
A: 94.5%

Q: What about the viability, T/C (second compound 0.316 µM, first compound 0.316 µM) of the same compound?
A: 76.1%

Q: What about the viability, T/C (second compound 0.316 µM, first compound 1 µM) of the same compound?
A: 58.8%

Q: And the viability, T/C (second compound 1 µM, first compound 0.00316 µM)?
A: 90.6%

Q: What about the viability, T/C (second compound 1 µM, first compound 0.01 µM) of the same compound?
A: 100%

Q: And the viability, T/C (second compound 1 µM, first compound 0.0316 µM)?
A: 93.5%

Q: What about the viability, T/C (second compound 1 µM, first compound 0.1 µM) of the same compound?
A: 96.4%

Q: And the viability, T/C (second compound 1 µM, first compound 0.316 µM)?
A: 73.3%

Q: What about the viability, T/C (second compound 1 µM, first compound 1 µM) of the same compound?
A: 54.9%
